Measured values reported in the supplement of paper PMC10307832.

Legend:
Experiment in all cases: relative viability (nuclei count vs DMSO), 5 days (fraction); higher = more cells survive
TGX 221 + OSI-027 = compound: CC1=CN2C(=O)C=C(N=C2C(=C1)C(C)NC3=CC=CC=C3)N4CCOCC4 [TGX 221] + COc1cccc2cc(-c3nc([C@H]4CC[C@H](C(=O)O)CC4)n4ncnc(N)c34)[nH]c12 [OSI-027] (partner 0.5 µM)
Outline: (§1)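 The day after seeding in 1536-well plates, lung cancer cell lines were treated by pin tool with a single drug, or with a fixed anchor-drug dose together with five library-drug doses (not always all listed) in √10 steps. After 5 days, a combined fix-and-stain solution (final 0.05% Triton X-100, 1% formaldehyde, 1 ug/ml Hoechst) was added. Nuclei counted on 4× images gave relative viability as treated counts over vehicle counts, reported as the median of duplicate plates.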

[1] = compound: O=C(CCCCCCNC(=O)c1cnc(N(c2ccccc2)c2ccccc2)nc1)NO [Ricolinostat] + CS(=O)(=O)N1CCN(Cc2cc3nc(-c4cccc5[nH]ncc45)nc(N4CCOCC4)c3s2)CC1 [Pictilisib] (partner 1 µM)
Outline: as §1

[2] = compound: O=C(CCCCCCNC(=O)c1cnc(N(c2ccccc2)c2ccccc2)nc1)NO [Ricolinostat] + O=C(CCCCCCC(=O)Nc1ccccc1)NO [Vorinostat] (partner 1 µM)
Outline: as §1

[3] = compound: C1=CC=C(C(=C1)C2=CC=C(C=C2)C3=CSC4=C3C(=C(C(=O)N4)C#N)O)O + Cc1cc(Nc2cc(N3CCN(C)CC3)nc(Sc3ccc(NC(=O)C4CC4)cc3)n2)n[nH]1 [Tozasertib] (partner 0.1 µM)
Outline: as §1

Cell Line | relative viability (TGX 221 + OSI-027; first compound 0.08 µM) | relative viability (TGX 221 + OSI-027; first compound 0.253 µM) | relative viability (TGX 221 + OSI-027; first compound 0.8 µM) | relative viability (TGX 221 + OSI-027; first compound 2.53 µM) | relative viability (TGX 221 + OSI-027; first compound 8 µM) | relative viability ([1]; first compound 0.253 µM) | relative viability ([1]; first compound 0.8 µM) | relative viability ([1]; first compound 2.53 µM) | relative viability ([2]; first compound 0.08 µM) | relative viability ([2]; first compound 0.253 µM) | relative viability ([2]; first compound 0.8 µM) | relative viability ([2]; first compound 2.53 µM) | relative viability ([3]; first compound 0.08 µM) | relative viability ([3]; first compound 0.253 µM) | relative viability ([3]; first compound 0.8 µM) | relative viability ([3]; first compound 2.53 µM) | relative viability ([3]; first compound 8 µM) | relative viability ([1]; first compound 0.08 µM)
EPLC-272H | 0.273 | 0.28 | 0.244 | 0.293 | 0.316 | 0.343 | 0.285 | 0.355 | 0.343 | 0.396 | 0.313 | 0.174 | 0.223 | 0.194 | 0.227 | 0.22 | 0.247 | –
H3255 | 0.535 | 0.593 | 0.506 | 0.539 | 0.571 | 0.418 | 0.484 | 0.484 | 0.735 | 1.09 | 0.672 | 0.591 | 1.04 | 0.727 | 0.213 | 0.868 | 0.559 | 0.387
NCI-H650 | 0.519 | 0.515 | 0.445 | 0.527 | 0.504 | 0.766 | 0.77 | 0.506 | 0.355 | 0.434 | 0.367 | 0.296 | 0.62 | 0.821 | 0.637 | 0.837 | 0.683 | –
NCI-H1944 | 0.377 | 0.39 | 0.397 | 0.409 | 0.388 | 0.347 | 0.321 | 0.289 | 0.493 | 0.539 | 0.488 | 0.422 | 0.269 | 0.281 | 0.269 | 0.251 | 0.228 | 0.285
NCI-H23 | 0.506 | 0.613 | 0.594 | 0.456 | 0.517 | 0.572 | 0.475 | 0.309 | 0.426 | 0.586 | 0.407 | 0.342 | 0.395 | 0.32 | 0.373 | 0.449 | 0.316 | 0.381
NCI-H358 | 0.716 | 0.719 | 0.756 | 0.739 | 0.583 | 0.495 | 0.463 | 0.539 | 0.599 | 0.633 | 0.482 | 0.34 | 0.107 | 0.112 | 0.104 | 0.0911 | 0.114 | 0.213
HCC-366 | 0.865 | 0.832 | 0.922 | 0.567 | 0.755 | 0.17 | 0.151 | 0.198 | 0.296 | 0.327 | 0.313 | 0.165 | 0.139 | 0.137 | 0.14 | 0.124 | 0.0974 | 0.133
NCI-H2405 | 0.609 | 0.627 | 0.664 | 0.658 | 0.589 | 0.494 | 0.412 | 0.277 | 0.854 | 1.02 | 0.379 | 0.767 | 0.718 | 0.797 | 0.733 | 0.725 | 0.704 | 0.389
NCI-H441 | 0.58 | 0.698 | 0.576 | 0.728 | 0.665 | 0.55 | 0.426 | 0.453 | 0.735 | 0.76 | 0.643 | 0.54 | 0.801 | 0.855 | 0.815 | 0.61 | 0.768 | 0.42
NCI-H322M | 0.541 | 0.515 | 0.551 | 0.507 | 0.567 | 0.558 | 0.561 | 0.568 | 0.621 | 0.834 | 0.827 | 0.804 | 0.487 | 0.426 | 0.487 | 0.497 | 0.444 | –
